Laboratory results from ChEMBL document CHEMBL3044811, “Efficacy of grain protectants against four psocid species on maize, rice and wheat” (2009).
Calls of active or inactive are those of the source. No cut-off for these calls is given here.

Experiments:
Liposcelis entomophila [1] = assay: Insecticidal activity against Liposcelis entomophila in compound pre-treated maize grains assessed as decrease in progeny production at 1 ppm after 30 days; type: functional, organism-based
Liposcelis paeta [2] = assay: Insecticidal activity against Liposcelis paeta in compound pre-treated maize grains assessed as effect on progeny production at 1 ppm after 30 days; type: functional, organism-based
[3] = system: Liposcelis bostrychophila; assay: Insecticidal activity against Liposcelis bostrychophila (booklice) in compound pre-treated wheat grains assessed as mortality at 1 ppm after 7 days (reference value: 3.3 +/-1.7%); type: functional
Lepinotus reticulatus [4] = assay: Insecticidal activity against Lepinotus reticulatus in compound pre-treated wheat grains assessed as decrease in progeny production at 1 ppm after 30 days; type: functional, organism-based
Liposcelis paeta [5] = assay: Insecticidal activity against Liposcelis paeta in compound pre-treated wheat grains assessed as mortality at 1 ppm after 7 days (reference value: 7.8 +/-3.2%); type: functional
[6] = system: Liposcelis bostrychophila; assay: Insecticidal activity against Liposcelis bostrychophila (booklice) in compound pre-treated wheat grains assessed as mortality at 1 ppm after 14 days (reference value: 6.8 +/-3.3%); type: functional
Lepinotus reticulatus [7] = assay: Insecticidal activity against Lepinotus reticulatus in compound pre-treated wheat grains assessed as mortality at 1 ppm after 14 days (reference value: 21.1 +/-7.4%); type: functional
Lepinotus reticulatus [8] = assay: Insecticidal activity against Lepinotus reticulatus in compound pre-treated rice grains assessed as decrease in progeny production at 1 ppm after 30 days; type: functional, organism-based
[9] = system: Liposcelis bostrychophila; assay: Insecticidal activity against Liposcelis bostrychophila (booklice) in compound pre-treated rice grains assessed as effect on progeny production at 1 ppm after 30 days; type: functional, organism-based
[10] = system: Liposcelis bostrychophila; assay: Insecticidal activity against Liposcelis bostrychophila (booklice) in compound pre-treated rice grains assessed as mortality at 1 ppm after 14 days (reference value: 9.7 +/-2.4%); type: functional
[11] = system: Liposcelis bostrychophila; assay: Insecticidal activity against Liposcelis bostrychophila (booklice) in compound pre-treated rice grains assessed as mortality at 1 ppm after 7 days (reference value: 8.9 +/-4.5%); type: functional
Liposcelis entomophila [12] = assay: Insecticidal activity against Liposcelis entomophila in compound pre-treated rice grains assessed as mortality at 1 ppm after 14 days (reference value: 10.0 +/-4.7%); type: functional
Lepinotus reticulatus [13] = assay: Insecticidal activity against Lepinotus reticulatus in compound pre-treated rice grains assessed as mortality at 1 ppm after 7 days (reference value: 6.8 +/-2.4%); type: functional
Lepinotus reticulatus [14] = assay: Insecticidal activity against Lepinotus reticulatus in compound pre-treated rice grains assessed as mortality at 1 ppm after 14 days (reference value: 15.5 +/-4.1%); type: functional
Lepinotus reticulatus [15] = assay: Insecticidal activity against Lepinotus reticulatus in compound pre-treated maize grains assessed as mortality at 1 ppm after 7 days (reference value: 34.4 +/-11.4%); type: functional
Liposcelis paeta [16] = assay: Insecticidal activity against Liposcelis paeta in compound pre-treated rice grains assessed as mortality at 1 ppm after 7 days (reference value: 3.3 +/-1.7%); type: functional
Liposcelis entomophila [17] = assay: Insecticidal activity against Liposcelis entomophila in compound pre-treated rice grains assessed as mortality at 1 ppm after 7 days (reference value: 3.3 +/-2.6%); type: functional
Liposcelis entomophila [18] = assay: Insecticidal activity against Liposcelis entomophila in compound pre-treated wheat grains assessed as decrease in progeny production at 1 ppm after 30 days; type: functional, organism-based
Lepinotus reticulatus [19] = assay: Insecticidal activity against Lepinotus reticulatus in compound pre-treated wheat grains assessed as mortality at 1 ppm after 7 days (reference value: 10.0 +/-5.3%); type: functional
Liposcelis entomophila [20] = assay: Insecticidal activity against Liposcelis entomophila in compound pre-treated maize grains assessed as mortality at 1 ppm after 14 days (reference value: 14.4 +/-4.1%); type: functional
Lepinotus reticulatus [21] = assay: Insecticidal activity against Lepinotus reticulatus in compound pre-treated maize grains assessed as mortality at 1 ppm after 14 days (reference value: 61.1 +/-11.9%); type: functional
Liposcelis paeta [22] = assay: Insecticidal activity against Liposcelis paeta in compound pre-treated maize grains assessed as mortality at 1 ppm after 7 days (reference value: 13.3 +/-3.3%); type: functional
[23] = system: Liposcelis bostrychophila; assay: Insecticidal activity against Liposcelis bostrychophila (booklice) in compound pre-treated wheat grains assessed as effect on progeny production at 1 ppm after 30 days; type: functional, organism-based
Liposcelis entomophila [24] = assay: Insecticidal activity against Liposcelis entomophila in compound pre-treated maize grains assessed as mortality at 1 ppm after 7 days (reference value: 15.6 +/-6.9%); type: functional
[25] = system: Liposcelis bostrychophila; assay: Insecticidal activity against Liposcelis bostrychophila (booklice) in compound pre-treated maize grains assessed as decrease in progeny production at 1 ppm after 30 days; type: functional, organism-based
Liposcelis entomophila [26] = assay: Insecticidal activity against Liposcelis entomophila in compound pre-treated wheat grains assessed as mortality at 1 ppm after 14 days (reference value: 13.3 +/-4.7%); type: functional
Liposcelis paeta [27] = assay: Insecticidal activity against Liposcelis paeta in compound pre-treated maize grains assessed as mortality at 1 ppm after 14 days (reference value: 14.1 +/-4.1%); type: functional
Liposcelis paeta [28] = assay: Insecticidal activity against Liposcelis paeta in compound pre-treated wheat grains assessed as mortality at 1 ppm after 14 days (reference value: 5.6 +/-1.8%); type: functional
[29] = system: Liposcelis bostrychophila; assay: Insecticidal activity against Liposcelis bostrychophila (booklice) in compound pre-treated maize grains assessed as mortality at 1 ppm after 14 days (reference value: 13.5 +/-5.3%); type: functional
Liposcelis entomophila [30] = assay: Insecticidal activity against Liposcelis entomophila in compound pre-treated wheat grains assessed as mortality at 1 ppm after 7 days (reference value: 5.6 +/-2.9%); type: functional
[31] = system: Liposcelis bostrychophila; assay: Insecticidal activity against Liposcelis bostrychophila (booklice) in compound pre-treated maize grains assessed as mortality at 1 ppm after 7 days (reference value: 8.9 +/-2.6%); type: functional
Lepinotus reticulatus [32] = assay: Insecticidal activity against Lepinotus reticulatus in compound pre-treated maize grains assessed as decrease in progeny production at 1 ppm after 30 days; type: functional, organism-based
Liposcelis paeta [33] = assay: Insecticidal activity against Liposcelis paeta in compound pre-treated rice grains assessed as mortality at 1 ppm after 14 days (reference value: 3.4 +/-1.6%); type: functional

CC[C@H]1CCC[C@H](O[C@H]2CC[C@H](N(C)C)[C@@H](C)O2)[C@@H](C)C(=O)C2=C[C@@H]3[C@@H](C=C(C)[C@@H]4C[C@@H](O[C@@H]5O[C@@H](C)[C@H](OC)[C@@H](OC)[C@H]5OC)C[C@@H]34)[C@@H]2CC(=O)O1.CC[C@H]1CCC[C@H](O[C@H]2CC[C@H](N(C)C)[C@@H](C)O2)[C@@H](C)C(=O)C2=C[C@@H]3[C@@H](C=C[C@@H]4C[C@@H](O[C@@H]5O[C@@H](C)[C@H](OC)[C@@H](OC)[C@H]5OC)C[C@@H]34)[C@@H]2CC(=O)O1
inhibition (Liposcelis entomophila [1]): Active | inhibition (Liposcelis paeta [2]): inactive | mortality at 1 ppm [3]: 74.5% | inhibition (Lepinotus reticulatus [4]): Active | mortality at 1 ppm (Liposcelis paeta [5]): 46.7% | mortality at 1 ppm [6]: 75.6% | mortality at 1 ppm (Lepinotus reticulatus [7]): 96.7% | inhibition (Lepinotus reticulatus [8]): Active | inhibition [9]: inactive | mortality at 1 ppm [10]: 45.7% | mortality at 1 ppm [11]: 48.9% | mortality at 1 ppm (Liposcelis entomophila [12]): 52.3% | mortality at 1 ppm (Lepinotus reticulatus [13]): 80% | mortality at 1 ppm (Lepinotus reticulatus [14]): 71.1% | mortality at 1 ppm (Lepinotus reticulatus [15]): 94.5% | mortality at 1 ppm (Liposcelis paeta [16]): 10% | mortality at 1 ppm (Liposcelis entomophila [17]): 52.2% | inhibition (Liposcelis entomophila [18]): Active | mortality at 1 ppm (Lepinotus reticulatus [19]): 94.4% | mortality at 1 ppm (Liposcelis entomophila [20]): 98.9% | mortality at 1 ppm (Lepinotus reticulatus [21]): 100% | mortality at 1 ppm (Liposcelis paeta [22]): 16.7% | inhibition [23]: inactive | mortality at 1 ppm (Liposcelis entomophila [24]): 90% | inhibition [25]: Active | mortality at 1 ppm (Liposcelis entomophila [26]): 84.4% | mortality at 1 ppm (Liposcelis paeta [27]): 37.8% | mortality at 1 ppm (Liposcelis paeta [28]): 55.6% | mortality at 1 ppm [29]: 76.4% | mortality at 1 ppm (Liposcelis entomophila [30]): 61.2% | mortality at 1 ppm [31]: 71.1% | inhibition (Lepinotus reticulatus [32]): Active | mortality at 1 ppm (Liposcelis paeta [33]): 18.8%
